For one assay, the target named is T1, GPX4 (Homo sapiens, UniProt P36969).
T1 sequence (P36969 28-197): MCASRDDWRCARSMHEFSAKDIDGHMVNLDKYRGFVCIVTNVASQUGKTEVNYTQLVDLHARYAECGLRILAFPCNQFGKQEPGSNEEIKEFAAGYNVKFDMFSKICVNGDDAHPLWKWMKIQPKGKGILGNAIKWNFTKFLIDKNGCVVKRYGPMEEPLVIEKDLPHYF
In words: coupled glutathione reductase / NADPH assay, […] nm. It is filed as biochemical.

The next assay deals with T2, GPX4 (residues 28-197) (Homo sapiens, UniProt P36969).
T2 sequence (P36969 28-197): T1 sequence (P36969 28-197)
In words: SPR. In kind it is binding.

The structures appear in SMILES notation.

As for `COC(=O)c1ccc(C)c(-c2ccc(/C=C3\SC(=O)N(Cc4ccc(F)cc4)C3=O)o2)c1` [DP037], the IC50 against GPX4 is more than 100 µM.

On to `Cc1ccc(C(=O)O)cc1-c1ccc(/C=C2\SC(=O)N(Cc3ccc(F)cc3)C2=O)o1` [DP021], for which, at GPX4, the midpoint of inhibition, the IC50, lay at 4.17 µM. The compound further displayed a dissociation constant (Kd) at GPX4 (residues 28-197) of 1.83 µM.

In general, IC50 refers to the concentration that gives 50% inhibition. Low values mean greater potency, high ones weaker potency. The Kd is the equilibrium constant for the complex coming apart.

These data come from doi:10.1101/2024.08.22.609123v2 (biorxiv, 2024).
